Experimental data taken from PubChem BioAssay AID2060504 (Molecular Pharmacology Branch, DTP, NCI, 2025).

Test system: 636577-100-R-J1-PDC complex spheroid viability
Experiment: Anticancer human tumor 636577-100-R-J1-PDC patient-derived endometrial adenocarcinoma cell line growth inhibition [GQUAD]
Settings: for IC50: curve of first compound; for viability, T/C: stronger effect = lower value
Procedure, shortened: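 Multi-cell-type spheroids of tumor cells with HUVEC and mesenchymal stem cells, treated with drug combinations. Concentrations descend in half-log steps from near clinical Cmax, or from 10 microM where Cmax is unknown; viability read-out.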

[1] = second compound 0.0316 µM, first compound 0.0316 µM
[2] = second compound 0.0316 µM, first compound 0.1 µM
[3] = second compound 0.0316 µM, first compound 0.316 µM
[4] = second compound 0.0316 µM, first compound 1 µM
[5] = second compound 0.0316 µM, first compound 3.16 µM
[6] = second compound 0.0316 µM, first compound 10 µM
[7] = second compound 0.1 µM, first compound 0.0316 µM
[8] = second compound 0.1 µM, first compound 0.1 µM
[9] = second compound 0.1 µM, first compound 0.316 µM
[10] = second compound 0.1 µM, first compound 1 µM
[11] = second compound 0.1 µM, first compound 3.16 µM
[12] = second compound 0.1 µM, first compound 10 µM
[13] = second compound 0.316 µM, first compound 0.0316 µM
[14] = second compound 0.316 µM, first compound 0.1 µM
[15] = second compound 0.316 µM, first compound 0.316 µM
[16] = second compound 0.316 µM, first compound 1 µM
[17] = second compound 0.316 µM, first compound 3.16 µM
[18] = second compound 0.316 µM, first compound 10 µM
[19] = second compound 1 µM, first compound 0.0316 µM
[20] = second compound 1 µM, first compound 0.1 µM
[21] = second compound 1 µM, first compound 0.316 µM
[22] = second compound 1 µM, first compound 1 µM
[23] = second compound 1 µM, first compound 3.16 µM
[24] = second compound 1 µM, first compound 10 µM
[25] = second compound 3.16 µM, first compound 0.0316 µM
[26] = second compound 3.16 µM, first compound 0.1 µM
[27] = second compound 3.16 µM, first compound 0.316 µM
[28] = second compound 3.16 µM, first compound 1 µM
[29] = second compound 3.16 µM, first compound 3.16 µM
[30] = second compound 3.16 µM, first compound 10 µM
[31] = second compound 10 µM, first compound 0.0316 µM
[32] = second compound 10 µM, first compound 0.1 µM
[33] = second compound 10 µM, first compound 0.316 µM
[34] = second compound 10 µM, first compound 1 µM
[35] = second compound 10 µM, first compound 3.16 µM
[36] = second compound 10 µM, first compound 10 µM
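Further: viability read after seven days of drug exposure.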
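Wherever viability, T/C is given: luminescence signal used as a proxy for viable cells; 100% = DMSO vehicle control wells.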

Question: How did the IC50 (second compound 0.0316 µM) turn out when `C=CC(=O)N1CCN(c2nc(=O)n(-c3c(C)ccnc3C(C)C)c3nc(-c4c(O)cccc4F)c(F)cc23)C(C)C1` (stereo unspecified) + CN(C)c1ccc(Nc2c3ccc(NC(=O)CCN4CCCC4)cc3nc3cc(NC(=O)CCN4CCCC4)ccc23)cc1 was run?
Answer: Its IC50 is > 10000 nM.

Question: What about the IC50 (second compound 0.1 µM) of the same compound?
Answer: Its IC50 is > 10000 nM.

Question: What about the IC50 (second compound 0.316 µM) of the same compound?
Answer: The IC50 was > 10000 nM.

Question: And the IC50 (second compound 1 µM)?
Answer: The IC50 was > 10000 nM.

Question: What about the IC50 (second compound 3.16 µM) of the same compound?
Answer: The IC50 was < 31.6 nM.

Question: And the IC50 (second compound 10 µM)?
Answer: The IC50 was < 31.6 nM.

Question: And the viability, T/C [1]?
Answer: Its viability, T/C is 82.5%.

Question: What about the viability, T/C [2] of the same compound?
Answer: Its viability, T/C is 60.8%.

Question: And the viability, T/C [3]?
Answer: The viability, T/C was 114%.

Question: What about the viability, T/C [4] of the same compound?
Answer: The viability, T/C was 75.2%.

Question: What about the viability, T/C [5] of the same compound?
Answer: The viability, T/C was 91.9%.

Question: What about the viability, T/C [6] of the same compound?
Answer: The viability, T/C was 64.8%.

Question: And the viability, T/C [7]?
Answer: Its viability, T/C is 73.5%.

Question: What about the viability, T/C [8] of the same compound?
Answer: The viability, T/C was 67.1%.

Question: What about the viability, T/C [9] of the same compound?
Answer: Its viability, T/C is 78.9%.

Question: And the viability, T/C [10]?
Answer: The viability, T/C was 73%.

Question: And the viability, T/C [11]?
Answer: Its viability, T/C is 108%.

Question: And the viability, T/C [12]?
Answer: Its viability, T/C is 75.6%.

Question: What about the viability, T/C [13] of the same compound?
Answer: The viability, T/C was 79.5%.

Question: And the viability, T/C [14]?
Answer: The viability, T/C was 63.9%.

Question: What about the viability, T/C [15] of the same compound?
Answer: Its viability, T/C is 88%.

Question: What about the viability, T/C [16] of the same compound?
Answer: The viability, T/C was 81.2%.

Question: And the viability, T/C [17]?
Answer: The viability, T/C was 97.5%.

Question: What about the viability, T/C [18] of the same compound?
Answer: The viability, T/C was 67.4%.

Question: And the viability, T/C [19]?
Answer: Its viability, T/C is 85.9%.

Question: What about the viability, T/C [20] of the same compound?
Answer: Its viability, T/C is 54.3%.

Question: And the viability, T/C [21]?
Answer: The viability, T/C was 76.3%.

Question: And the viability, T/C [22]?
Answer: The viability, T/C was 96.9%.

Question: What about the viability, T/C [23] of the same compound?
Answer: Its viability, T/C is 94.5%.

Question: And the viability, T/C [24]?
Answer: The viability, T/C was 60.3%.

Question: What about the viability, T/C [25] of the same compound?
Answer: The viability, T/C was 42%.

Question: And the viability, T/C [26]?
Answer: The viability, T/C was 43.9%.

Question: What about the viability, T/C [27] of the same compound?
Answer: The viability, T/C was 35.4%.

Question: And the viability, T/C [28]?
Answer: The viability, T/C was 53.6%.

Question: And the viability, T/C [29]?
Answer: The viability, T/C was 43.7%.

Question: And the viability, T/C [30]?
Answer: The viability, T/C was 28.9%.

Question: And the viability, T/C [31]?
Answer: The viability, T/C was 6.52%.

Question: And the viability, T/C [32]?
Answer: Its viability, T/C is 5.91%.

Question: And the viability, T/C [33]?
Answer: The viability, T/C was 6.86%.

Question: What about the viability, T/C [34] of the same compound?
Answer: Its viability, T/C is 6.43%.

Question: What about the viability, T/C [35] of the same compound?
Answer: The viability, T/C was 3.58%.

Question: And the viability, T/C [36]?
Answer: The viability, T/C was 0.96%.

Question: What does the source list for `COc1cccc2c1C(=O)c1c(O)c3c(c(O)c1C2=O)CC(O)(C(=O)CO)CC3OC1CC(N)C(O)C(C)O1` (stereo unspecified) + CN(C)c1ccc(Nc2c3ccc(NC(=O)CCN4CCCC4)cc3nc3cc(NC(=O)CCN4CCCC4)ccc23)cc1?
Answer: IC50 (second compound 0.0316 µM): < 31.6 nM; IC50 (second compound 0.1 µM): < 31.6 nM; IC50 (second compound 0.316 µM): < 31.6 nM; IC50 (second compound 1 µM): < 31.6 nM; IC50 (second compound 3.16 µM): < 31.6 nM; IC50 (second compound 10 µM): < 31.6 nM; viability, T/C [1]: 28%; viability, T/C [2]: 17.2%; viability, T/C [3]: 15.3%; viability, T/C [4]: 7.48%; viability, T/C [5]: 0.17%; viability, T/C [6]: 0.58%; viability, T/C [7]: 27.2%; viability, T/C [8]: 15.9%; viability, T/C [9]: 15.3%; viability, T/C [10]: 7.46%; viability, T/C [11]: 0.12%; viability, T/C [12]: 0.61%; viability, T/C [13]: 28%; viability, T/C [14]: 18.6%; viability, T/C [15]: 12.9%; viability, T/C [16]: 7.67%; viability, T/C [17]: 0.2%; viability, T/C [18]: 0.5%; viability, T/C [19]: 25%; viability, T/C [20]: 18.6%; viability, T/C [21]: 13.3%; viability, T/C [22]: 7.58%; viability, T/C [23]: 0.13%; viability, T/C [24]: 0.47%; viability, T/C [25]: 19.4%; viability, T/C [26]: 17.2%; viability, T/C [27]: 10.8%; viability, T/C [28]: 3.65%; viability, T/C [29]: 0.16%; viability, T/C [30]: 0.34%; viability, T/C [31]: 4.99%; viability, T/C [32]: 3.27%; viability, T/C [33]: 1.84%; viability, T/C [34]: 0.34%; viability, T/C [35]: 0.19%; viability, T/C [36]: 0.27%

Question: With `CC(=O)O[C@H]1C(=O)[C@@]2(C)[C@H]([C@H](OC(=O)c3ccccc3)[C@]3(O)C[C@H](OC(=O)[C@H](O)[C@@H](NC(=O)c4ccccc4)c4ccccc4)C(C)=C1C3(C)C)[C@]1(OC(C)=O)CO[C@@H]1C[C@@H]2O` + Cc1[nH]c2ccc(F)cc2c1-c1nc2c3cccnc3c3ncccc3c2[nH]1 as the compound, how does the IC50 (second compound 0.0316 µM) read?
Answer: Its IC50 is < 31.6 nM.

Question: What about the IC50 (second compound 0.1 µM) of the same compound?
Answer: The IC50 was < 31.6 nM.

Question: And the IC50 (second compound 0.316 µM)?
Answer: The IC50 was < 31.6 nM.

Question: What about the IC50 (second compound 1 µM) of the same compound?
Answer: Its IC50 is < 31.6 nM.

Question: And the IC50 (second compound 3.16 µM)?
Answer: Its IC50 is < 31.6 nM.

Question: And the IC50 (second compound 10 µM)?
Answer: Its IC50 is < 31.6 nM.

Question: And the viability, T/C [1]?
Answer: The viability, T/C was 16.9%.

Question: What about the viability, T/C [2] of the same compound?
Answer: Its viability, T/C is 14.4%.

Question: And the viability, T/C [3]?
Answer: Its viability, T/C is 13.5%.

Question: What about the viability, T/C [4] of the same compound?
Answer: Its viability, T/C is 12%.

Question: What about the viability, T/C [5] of the same compound?
Answer: The viability, T/C was 11.2%.

Question: And the viability, T/C [6]?
Answer: The viability, T/C was 11.2%.

Question: And the viability, T/C [7]?
Answer: The viability, T/C was 15.5%.

Question: And the viability, T/C [8]?
Answer: The viability, T/C was 13.5%.

Question: And the viability, T/C [9]?
Answer: Its viability, T/C is 10.8%.

Question: What about the viability, T/C [10] of the same compound?
Answer: The viability, T/C was 9.49%.

Question: And the viability, T/C [11]?
Answer: Its viability, T/C is 11.1%.

Question: And the viability, T/C [12]?
Answer: Its viability, T/C is 9.8%.

Question: What about the viability, T/C [13] of the same compound?
Answer: The viability, T/C was 17.3%.

Question: What about the viability, T/C [14] of the same compound?
Answer: The viability, T/C was 13.2%.

Question: What about the viability, T/C [15] of the same compound?
Answer: Its viability, T/C is 11.6%.

Question: What about the viability, T/C [16] of the same compound?
Answer: The viability, T/C was 10.4%.

Question: What about the viability, T/C [17] of the same compound?
Answer: The viability, T/C was 9.79%.

Question: What about the viability, T/C [18] of the same compound?
Answer: The viability, T/C was 11.4%.

Question: What about the viability, T/C [19] of the same compound?
Answer: Its viability, T/C is 16.5%.

Question: What about the viability, T/C [20] of the same compound?
Answer: Its viability, T/C is 12%.

Question: And the viability, T/C [21]?
Answer: Its viability, T/C is 12%.

Question: And the viability, T/C [22]?
Answer: The viability, T/C was 12.1%.

Question: And the viability, T/C [23]?
Answer: Its viability, T/C is 10.9%.

Question: What about the viability, T/C [24] of the same compound?
Answer: The viability, T/C was 11%.

Question: What about the viability, T/C [25] of the same compound?
Answer: The viability, T/C was 15.3%.

Question: What about the viability, T/C [26] of the same compound?
Answer: The viability, T/C was 11.7%.

Question: What about the viability, T/C [27] of the same compound?
Answer: The viability, T/C was 13.8%.

Question: What about the viability, T/C [28] of the same compound?
Answer: The viability, T/C was 12.5%.

Question: What about the viability, T/C [29] of the same compound?
Answer: The viability, T/C was 10.7%.

Question: And the viability, T/C [30]?
Answer: The viability, T/C was 8.71%.

Question: What about the viability, T/C [31] of the same compound?
Answer: Its viability, T/C is 15.6%.

Question: What about the viability, T/C [32] of the same compound?
Answer: The viability, T/C was 13.5%.

Question: And the viability, T/C [33]?
Answer: The viability, T/C was 10.5%.

Question: And the viability, T/C [34]?
Answer: Its viability, T/C is 11.4%.

Question: What about the viability, T/C [35] of the same compound?
Answer: Its viability, T/C is 12.7%.

Question: What about the viability, T/C [36] of the same compound?
Answer: Its viability, T/C is 12.6%.
